Earlier results in patent US8076148B2, “Cytochrome c protein and assay” (GE Healthcare UK Limited, priority 2003, dated 2011).

Experiments:
[1] = tested on: rat pheochromocytoma-6 (PC6) cells; details: PC6 cells expressing rat cytochrome c-GFP
[2] = tested on: caspase-9; details: in vitro
[3] = target: T1, Apaf-1 (Homo sapiens, UniProt O14727); details: in vitro
T1 sequence (O14727 1-1248): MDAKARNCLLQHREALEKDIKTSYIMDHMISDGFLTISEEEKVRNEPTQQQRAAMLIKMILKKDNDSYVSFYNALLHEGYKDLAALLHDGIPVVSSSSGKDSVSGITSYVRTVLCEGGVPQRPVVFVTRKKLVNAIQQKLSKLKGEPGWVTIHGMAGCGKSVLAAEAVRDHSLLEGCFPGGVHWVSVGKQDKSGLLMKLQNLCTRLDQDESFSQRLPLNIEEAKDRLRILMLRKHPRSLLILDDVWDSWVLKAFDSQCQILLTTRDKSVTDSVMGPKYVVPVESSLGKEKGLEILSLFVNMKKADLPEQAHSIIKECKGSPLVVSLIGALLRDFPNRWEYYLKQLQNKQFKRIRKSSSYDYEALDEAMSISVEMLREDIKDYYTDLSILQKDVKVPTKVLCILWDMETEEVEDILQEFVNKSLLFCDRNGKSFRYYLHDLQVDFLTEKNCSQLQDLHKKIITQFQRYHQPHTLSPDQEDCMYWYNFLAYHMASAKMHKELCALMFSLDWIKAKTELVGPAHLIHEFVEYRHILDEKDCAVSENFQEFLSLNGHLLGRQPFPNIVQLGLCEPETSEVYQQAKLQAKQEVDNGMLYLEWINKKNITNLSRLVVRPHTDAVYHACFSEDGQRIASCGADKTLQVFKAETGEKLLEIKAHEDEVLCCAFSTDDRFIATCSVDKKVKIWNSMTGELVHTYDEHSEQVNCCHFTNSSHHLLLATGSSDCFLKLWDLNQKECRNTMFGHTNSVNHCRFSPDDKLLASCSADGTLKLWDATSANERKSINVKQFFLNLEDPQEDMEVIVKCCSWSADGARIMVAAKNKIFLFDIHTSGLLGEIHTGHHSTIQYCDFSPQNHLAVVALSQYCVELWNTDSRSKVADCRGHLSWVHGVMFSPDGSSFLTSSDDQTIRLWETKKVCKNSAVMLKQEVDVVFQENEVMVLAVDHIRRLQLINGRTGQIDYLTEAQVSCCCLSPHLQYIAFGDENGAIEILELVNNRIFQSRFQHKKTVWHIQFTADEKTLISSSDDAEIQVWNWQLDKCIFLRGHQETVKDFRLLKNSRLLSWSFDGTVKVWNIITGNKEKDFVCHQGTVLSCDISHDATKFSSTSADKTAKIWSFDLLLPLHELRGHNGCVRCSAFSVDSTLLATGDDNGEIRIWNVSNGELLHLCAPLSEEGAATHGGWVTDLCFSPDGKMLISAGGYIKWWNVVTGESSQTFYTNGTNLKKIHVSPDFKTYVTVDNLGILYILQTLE

Row | Compound | release of cytochrome c-GFP fusion from the mitochondria [1] | caspase activation [2] | binding to Apaf-1 [3]
1 | CN[C@@H]1C[C@H]2O[C@@](C)([C@@H]1OC)n1c3ccccc3c3c4c(c5c6ccccc6n2c5c31)C(=O)NC4 [staurosporine] | led to release of the fusion from the mitochondria |  | 
2 | Horse cytochrome c: horse wild type cytochrome c, highly homologous to human cytochrome c |  | can initiate caspase activation | 
3 | K72A: cytochrome c mutant, lysine 72 to alanine, from the literature in vitro studies (Kluck et al.; Yu et al.) |  | no detectable binding or caspase-9 activation | no detectable binding
4 | yeast cytochrome c: yeast wild type cytochrome c |  | nor activate caspase | did not measurably bind
